# Experimental data as given in patent US7495021B2, “Benzothiazole- and benzooxazole-4,7-dione, derivatives and their use as cdc25 phosphate inhibitors” (Societe de Conseils de Recherches et d'Applications …, priority 2001, dated 2009).
# Structures can show the parent of a compound that is named as a salt.
# Tests used:
# [1] = test system: DU145 (human prostate cancer cells); assay: Antiproliferative activity, WST1 colorimetric test, DU145; assay type: cell-based; details: DU-145, 96 hours treatment, up to 10 μM, read-out: Cl50 on the cell proliferation of the lines DU-145
# Method: (§1) iii) Characterization of the Antiproliferative Activity:
# (§2) By way of example, the effect of a treatment on two human cell lines Mia-Paca2 and DU145 by the compounds of the examples described previously will be studied. The cell lines DU145 (human prostate cancer cells) and Mia-PaCa2 (human pancreas cancer cells) were acquired from the American Tissue Culture Collection (Rockville, Md., USA). The cells placed in 80 μl of Dulbecco's Modified Eagle's medium (Gibco-Brl, Cergy-Pontoise, France) completed with 10% foetal calf serum inactivated by heating (Gibco-Brl, Cergy-Pontoise, France), 50,000 units/l of penicillin and 50 mg/l of streptomycin (Gibco-Brl, 10378-057, Cergy-Pontoise, France), and 2 mM of glutamine (Gibco-Brl, Cergy-Pontoise, France) were seeded on a 96-well plate on day 0. The cells were treated on day 1 for 96 hours with increasing concentrations of each of the compounds to be tested up to 10 μM. At the end of this period, quantification of cell proliferation is evaluated by a colorimetric test based on the cleavage of the tetrazolium salt WST1 by the mitochondrial dehydrogenases in viable cells leading to the formation of formazan (Boehringer Mannheim, Meylan, France). These tests are carried out in duplicate with 8 determinations per concentration tested. For each compound to be tested, the values included in the linear part of the sigmoid were retained for a linear regression analysis and used to estimate the inhibitory concentration IC50. The products are solubilized in dimethylsulphoxide (DMSO) at 10^−2 M and used in culture with 0.1% DMSO final.
# [2] = test system: Mia-PaCa2 (human pancreas cancer cells); assay: Antiproliferative activity, WST1 colorimetric test, Mia-PaCa2; assay type: cell-based; details: MIA PaCa-2, 96 hours treatment, up to 10 μM, read-out: CI50 on the cell proliferation of the lines Mia-Paca2
# Method: as §1, §2
Structure (SMILES),IC50 [1] [µM],IC50 [2] [µM],melting point [°C]
"Cc1nc2c(s1)C(=O)C=C(NCCCN1CCN(C)CC1)C2=O [Example 5, 2-methyl-5-{[3-(4-methyl-1-piperazinyl)propyl]amino}-1,3-benzothiazole-4,7-dione]",≤ 10,–,–
"CCCCCC(CC)NC1=CC(=O)c2sc(C)nc2C1=O (stereo not shown) [Example 6, 5-[(1-ethylhexyl)amino]-2-methyl-1,3-benzothiazole-4,7-dione]",≤ 10,–,–
"Cc1nc2c(s1)C(=O)C=C(NCC13CC4CC(CC(C4)C1)C3)C2=O [Example 7, 5-[(1-adamantylmethyl)amino]-2-methyl-1,3-benzothiazole-4,7-dione]",≤ 10,–,–
"Cc1nc2c(s1)C(=O)C=C(NCc1cccc(Cl)c1)C2=O [Example 9, 5-[(3-chlorobenzyl)amino]-2-methyl-1,3-benzothiazole-4,7-dione]",≤ 10,–,–
"Cc1nc2c(s1)C(=O)C=C(N1CCN(Cc3ccccc3)CC1)C2=O [Example 14, 5-(4-benzyl-1-piperazinyl)-2-methyl-1,3-benzothiazole-4,7-dione]",≤ 10,–,–
"CCc1nc2c(o1)C(=O)C=C(Nc1ccccc1)C2=O [Example 15, 5-anilino-2-ethyl-4,7-dihydrobenzo[d][1,3]oxazole-4,7-dione]",≤ 10,≤ 10,200
"CCc1nc2c(o1)C(=O)C(Cl)=C(Nc1ccccc1)C2=O [Example 16, 5-anilino-6-chloro-2-ethyl-1,3-benzoxazole-4,7-dione]",≤ 10,≤ 10,159
"CCc1nc2c(o1)C(=O)C=C(Nc1ccc(F)cc1)C2=O [Example 17, 2-ethyl-5-[(4-fluorophenyl)amino]-1,3-benzoxazole-4,7-dione]",≤ 10,≤ 10,232
"COCCNC1=CC(=O)c2sc(C)nc2C1=O [Example 18, 5-[(2-methoxyethyl)amino]-2-methyl-1,3-benzothiazole-4,7-dione]",≤ 10,–,–
"Cc1nc2c(s1)C(=O)C=C(NCCN1CCCC1)C2=O [Example 19, 2-methyl-5-[(2-pyrrolidin-1-ylethyl)amino]-1,3-benzothiazole-4,7-dione]",≤ 10,–,–
"Cc1nc2c(s1)C(=O)C=C(NCCN1CCCCC1)C2=O [Example 20, 2-methyl-5-[(2-piperidin-1-ylethyl)amino]-1,3-benzothiazole-4,7-dione]",≤ 10,–,–
"Cc1nc2c(s1)C(=O)C=C(NC1CCN(Cc3ccccc3)C1)C2=O (stereo not shown) [Example 22, 5-[(1-benzylpyrrolidin-3-yl)amino]-2-methyl-1,3-benzothiazole-4,7-dione]",≤ 10,–,–
"Cc1nc2c(s1)C(=O)C=C(NCCCN(C)C)C2=O [Example 23, 5-{[3-(dimethylamino)propyl]amino}-2-methyl-1,3-benzothiazole-4,7-dione]",≤ 10,–,–
"Cc1nc2c(s1)C(=O)C=C(NCCCN1CCCCC1C)C2=O (stereo not shown) [Example 25, 2-methyl-5-{[3-(2-methylpiperidin-1-yl)propyl]amino}-1,3-benzothiazole-4,7-dione]",≤ 10,–,–
"Cc1nc2c(s1)C(=O)C=C(NCCCCN(C)C)C2=O [Example 26, 5-{[4-(dimethylamino)butyl]amino}-2-methyl-1,3-benzothiazole-4,7-dione]",≤ 10,–,–
"Cc1nc2c(s1)C(=O)C=C(NCCCCCN(C)C)C2=O [Example 27, 5-{[5-(dimethylamino)pentyl]amino}-2-methyl-1,3-benzothiazole-4,7-dione]",≤ 10,–,–
"Cc1nc2c(s1)C(=O)C=C(NC1CCc3ccccc31)C2=O (stereo not shown) [Example 28, 5-(2,3-dihydro-1H-inden-1-ylamino)-2-methyl-1,3-benzothiazole-4,7-dione]",≤ 10,–,–
"Cc1nc2c(s1)C(=O)C=C(NCCCN(C)C(=O)OC(C)(C)C)C2=O [Example 30, tert-butyl methyl{3-[(2-methyl-4,7-dioxo-4,7-dihydro-1,3-benzothiazole-5-yl)amino]propyl}carbamate]",≤ 10,–,–
"Cc1nc2c(s1)C(=O)C=C(NCCCNC(=O)OC(C)(C)C)C2=O [Example 31, tert-butyl 3-[(2-methyl-4,7-dioxo-4,7-dihydro-1,3-benzothiazol-5-yl)amino]propylcarbamate]",≤ 10,–,–
"CNCCCNC1=CC(=O)c2sc(C)nc2C1=O [Example 32, 2-methyl-5-{[3-(methylamino)propyl]amino}-1,3-benzothiazole-4,7-dione hydrochloride]",≤ 10,–,–
"Cc1nc2c(s1)C(=O)C=C(NCCCN)C2=O [Example 33, 5-[(3-aminopropyl)amino]-2-methyl-1,3-benzothiazole-4,7-dione]",≤ 10,≤ 10,–
CN(C)CCNC1=CC(=O)c2sc(CN3CCN(c4ccccc4)CC3)nc2C1=O [Example 38],≤ 10,–,–
"CN(C)CCNC1=CC(=O)c2sc(CN3CCCCC3)nc2C1=O [Example 39, 5-{[2-(dimethylamino)ethyl]amino}-2-(piperidin-1-ylmethyl)-1,3-benzothiazole-4,7-dione]",≤ 10,–,–

# Further lines, results first:
IC50 [1] [µM],IC50 [2] [µM],melting point [°C],Structure (SMILES)
≤ 10,–,–,"Cc1nc2c(s1)C(=O)C=C(NCCN1CCOCC1)C2=O [Example 1, 2-methyl-5-{[2-(4-morpholinyl)ethyl]amino}-1,3-benzothiazole-4,7-dione]"
≤ 10,–,–,"Cc1nc2c(s1)C(=O)C=C(NCCN(C)C)C2=O [Example 2, 5-{[2-(dimethylamino)ethyl]amino}-2-methyl-1,3-benzothiazole-4,7-dione hydrochloride]"
≤ 10,–,–,"Cc1nc2c(s1)C(=O)C=C(NCCCCCCN(C)C)C2=O [Example 3, 5-{[6-(dimethylamino)hexyl]amino}-2-methyl-1,3-benzothiazole-4,7-dione]"
≤ 10,–,–,"Cc1nc2c(s1)C(=O)C=C(NCC(C)(C)CN(C)C)C2=O [Example 4, 5-{[3-(dimethylamino)-2,2-dimethylpropyl]amino}-2-methyl-1,3-benzothiazole-4,7-dione]"
≤ 10,–,–,"Cc1nc2c(s1)C(=O)C=C(NCc1cccs1)C2=O [Example 8, 2-methyl-5-[(2-thienylmethyl)amino]-1,3-benzothiazole-4,7-dione]"
≤ 10,–,–,"Cc1nc2c(s1)C(=O)C=C(NCCN(C(C)C)C(C)C)C2=O [Example 21, 5-{[2-(diisopropylamino)ethyl]amino}-2-methyl-1,3-benzothiazole-4,7-dione]"
≤ 10,–,–,"Cc1nc2c(s1)C(=O)C=C(NCCC1CCCN1C)C2=O (stereo not shown) [Example 24, 2-methyl-5-{[2-(1-methylpyrrolidin-2-yl)ethyl]amino}-1,3-benzothiazole-4,7-dione]"
≤ 10,–,–,"Cc1nc2c(s1)C(=O)C=C(N(CCN(C)C)Cc1ccccc1)C2=O [Example 29, 5-{benzyl[2-(dimethylamino)ethyl]amino}-2-methyl-1,3-benzothiazole-4,7-dione]"
≤ 10,–,–,Cc1nc2c(s1)C(=O)C(Cl)=C(NCCN(C)C)C2=O [Example 34]
≤ 10,–,–,"CCCCSC1=C(NCCN(C)C)C(=O)c2nc(C)sc2C1=O [Example 36, 6-(butylthio)-5-{[2-(dimethylamino)ethyl]amino}-2-methyl-1,3-benzothiazole-4,7-dione]"
≤ 10,–,–,"CN(C)CCNC1=CC(=O)c2sc(CN3CCOCC3)nc2C1=O [Example 37, 5-{[2-(dimethylamino)ethyl]amino}-2-(morpholin-4-ylmethyl)-1,3-benzothiazole-4,7-dione]"
≤ 10,–,135,"CCc1nc2c(o1)C(=O)C(C)=C(NCCN(C)C)C2=O [Example 55, 5-{[2-(dimethylamino)ethyl]amino}-2-ethyl-6-methyl-1,3-benzoxazole-4,7-dione]"
